Results on eleven compounds are retold here after PubChem BioAssay (NCI).

Test in all cases: NCI anticancer screen, dose series, 48 h
For experiment [1], the system named is 786-0 renal.
Experiment [2] has as its system A498 renal.
Experiment [3] concerns ACHN renal.
Experiment [4] deals with CAKI-1 renal.
Experiment [5] concerns COLO 205 colon.
Experiment [6] has as its system HCC-2998 colon.
Experiment [7] deals with HCT-15 colon.
Experiment [8] concerns HL-60(TB) leukemia.
Experiment [9] deals with KM12 colon.
Experiment [10] concerns M14 melanoma.
Experiment [11] relates to MDA-N.
Experiment [12] has as its system OVCAR-4 ovarian.
For experiment [13], the system named is SR leukemia.
For experiment [14], the system named is MOLT-4 leukemia.

The structures appear in SMILES notation.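 Test compounds were applied to cells in 96-well plates for 48 hours at 5 doses. TGI marks complete inhibition of growth.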

For the compound `O=C1c2cccc3cccc(c23)C(=O)N1CCCNCCCCNCCCN1C(=O)c2cccc3cccc(c23)C1=O`, the TGI in [1] is 0.734 µM; in experiment [2] it was 2.45 µM; in experiment [3], 6.47 µM; in experiment [4], 5.65 µM; in experiment [5], 1.25 µM; in experiment [6], 0.568 µM. Besides, the TGI in experiment [7] worked out at 13.8 µM; in experiment [8], 1.93 µM; in experiment [9], 3.66 µM; in [10] it was 1.94 µM; in [11], 1.47 µM; in experiment [12], 1.93 µM. Besides, in experiment [13], the TGI is 0.219 µM.

`COc1ccc(N)c(C(O)CCNC(C)=O)c1` (configuration not stated): the TGI in experiment [1], in experiment [2], in experiment [3], in experiment [4], in [5] and in experiment [7] was > 100 µM in each case. Besides, the TGI in experiment [8], in experiment [9], in experiment [10], in [11], in [14] and in [12] was > 100 µM throughout. Further, in experiment [13], the TGI is > 100 µM.

Turning to `O=C(O)CN=C(C(=NCC(=O)O)c1ccccc1)c1ccccc1`, the TGI in experiment [1], in experiment [2], in [3], in [4], in experiment [5] and in experiment [6] was > 100 µM each time. In addition, the TGI in experiment [7], in [9], in [10], in experiment [11], in [14] and in experiment [12] was > 100 µM each time. In addition, the TGI in [13] was > 100 µM.

Regarding `CCN(CC)CCNc1ccc2ncn3c4c(OC)ccc(OC)c4c(=O)c1c23`, the TGI in experiment [1] is 70.9 µM; in experiment [2] it was > 100 µM; in experiment [3], > 100 µM; in [4], > 100 µM; in experiment [5] it was 20.4 µM; in [6], 31 µM. Besides, the TGI was found to be 38.5 µM in [7]; 22.6 µM in experiment [9]; 34.4 µM in experiment [10]; 25.4 µM in [11]; 30.4 µM in [14]; 43.6 µM in [13].

Regarding `Nc1ccc(-c2ncc3cc(-c4cccc(-c5cc6cnc(-c7ccc(N)cc7)nc6c6ccccc56)c4)c4ccccc4c3n2)cc1`, the TGI in [1], in experiment [2], in experiment [3], in experiment [4], in experiment [5] and in experiment [6] was > 100 µM in each case. Also, the TGI in experiment [7], in experiment [9], in experiment [10], in experiment [11], in experiment [14] and in experiment [13] was > 100 µM each time.

Turning to `COc1ccc(OC)c([N+](=O)[O-])c1-c1nc2sccn2c1/C=N/N=C(N)N`, the TGI in experiment [1] was > 100 µM; in experiment [2] it was > 100 µM; in experiment [3], > 100 µM; in experiment [4], > 100 µM; in experiment [5], > 100 µM; in [6], 79.4 µM. For the same compound, the TGI in experiment [7] is > 100 µM; in experiment [8], > 100 µM; in experiment [9], 81.5 µM; in [10] it was > 100 µM; in experiment [11], > 100 µM; in experiment [14], 69.5 µM. For the same compound, in experiment [13], the TGI is > 100 µM.

In the case of `COC1(C(C)(C)C)C=C(C(C)(C)C)P(=O)(O)O1` (configuration not stated), the TGI in experiment [1], in [2], in experiment [3], in [4], in experiment [5] and in experiment [6] was > 100 µM in each case. The TGI in experiment [7], in experiment [8], in experiment [9], in experiment [10], in [11] and in experiment [12] was > 100 µM in each case. Moreover, in experiment [13], the TGI was > 100 µM.

For `O=c1[nH]c(=O)n(C2CC(O)C(CO)O2)cc1OCCc1ccccc1` (configuration not stated), the TGI in [1], in experiment [3], in experiment [4], in experiment [5], in experiment [7] and in [8] was > 100 µM in each case. Also, the TGI in experiment [9], in [10], in experiment [11], in [14], in experiment [12] and in [13] was > 100 µM each time.

With `COC(=O)c1ccc(Oc2nc3ccccc3nc2-c2cccs2)cc1`, the TGI in experiment [1], in experiment [3], in experiment [4], in experiment [5], in [7] and in [8] was > 100 µM in each case. The TGI in experiment [9], in experiment [10], in [11], in experiment [14], in [12] and in experiment [13] was > 100 µM in each case.

Consider `CSc1ccccc1P(c1ccccc1SC)c1ccccc1SC`, for which the TGI in experiment [1], in [2], in experiment [3], in experiment [4], in experiment [7] and in [9] was > 100 µM each time. Moreover, the TGI in experiment [10], in experiment [11], in experiment [14], in experiment [12] and in [13] was > 100 µM each time.

For the compound `CNC(=O)CCNC(=O)CCC(=O)N(C)C`, the TGI in experiment [1], in experiment [2], in [3], in experiment [4], in experiment [5] and in experiment [6] was > 100 µM in each case. Moreover, the TGI in [7], in experiment [9], in [10], in experiment [11], in experiment [14] and in [12] was > 100 µM each time. Besides, in experiment [13], the TGI was > 100 µM.
